# Data from US4400199A, “Thiolcarbamate compounds and their use as herbicides” (priority 1981, dated 1983).
# System: barnyard grass (Echinochloa crus-galli)
# Assay: Experiment 1: herbicidal effects against barnyard grass (pot test, emulsifiable concentrate)
# Format: in vivo
# Settings: 1.5 leaf-stage of barnyard grass; 150 g/10a.; 25 days
row,SMILES,herbicidal activity (barnyard grass)
1,"CC1CCCCN1C(=O)SCCCCCl (stereo not drawn) [Compound 1, S-(4-chlorobutyl)-(2-methyl)-piperidine-1-carbothioate]",5 (more than 90%)
2,"CC1CCCCN1C(=O)SCCCCCCl (stereo not drawn) [Compound 2, S-(5-chloropentyl)-(2-methyl)-piperidine-1-carbothioate]",5 (more than 90%)
3,"CC1CCCCN1C(=O)SCCCCCCCl (stereo not drawn) [Compound 3, S-(6-chlorohexyl)-(2-methyl)-piperidine-1-carbothioate]",5 (more than 90%)

# Same assay, conditions: 1.5 leaf-stage of barnyard grass; 300 g/10a.; 25 days
row,SMILES,herbicidal activity (barnyard grass)
1,"CC1CCCCN1C(=O)SCCCCCl (stereo not drawn) [Compound 1, S-(4-chlorobutyl)-(2-methyl)-piperidine-1-carbothioate]",5 (more than 90%)
2,"CC1CCCCN1C(=O)SCCCCCCl (stereo not drawn) [Compound 2, S-(5-chloropentyl)-(2-methyl)-piperidine-1-carbothioate]",5 (more than 90%)
3,"CC1CCCCN1C(=O)SCCCCCCCl (stereo not drawn) [Compound 3, S-(6-chlorohexyl)-(2-methyl)-piperidine-1-carbothioate]",5 (more than 90%)

# Same assay, conditions: 1.5 leaf-stage of barnyard grass; 600 g/10a.; 25 days
row,SMILES,herbicidal activity (barnyard grass)
1,"CC1CCCCN1C(=O)SCCCCCl (stereo not drawn) [Compound 1, S-(4-chlorobutyl)-(2-methyl)-piperidine-1-carbothioate]",5 (more than 90%)
2,"CC1CCCCN1C(=O)SCCCCCCl (stereo not drawn) [Compound 2, S-(5-chloropentyl)-(2-methyl)-piperidine-1-carbothioate]",5 (more than 90%)
3,"CC1CCCCN1C(=O)SCCCCCCCl (stereo not drawn) [Compound 3, S-(6-chlorohexyl)-(2-methyl)-piperidine-1-carbothioate]",5 (more than 90%)

# Same assay, conditions: 3 leaf-stage of barnyard grass; 150 g/10a.; 25 days
row,SMILES,herbicidal activity (barnyard grass)
1,"CC1CCCCN1C(=O)SCCCCCl (stereo not drawn) [Compound 1, S-(4-chlorobutyl)-(2-methyl)-piperidine-1-carbothioate]",5 (more than 90%)
2,"CC1CCCCN1C(=O)SCCCCCCl (stereo not drawn) [Compound 2, S-(5-chloropentyl)-(2-methyl)-piperidine-1-carbothioate]",5 (more than 90%)
3,"CC1CCCCN1C(=O)SCCCCCCCl (stereo not drawn) [Compound 3, S-(6-chlorohexyl)-(2-methyl)-piperidine-1-carbothioate]",4 (70 to 89%)

# Same assay, conditions: 3 leaf-stage of barnyard grass; 300 g/10a.; 25 days
row,SMILES,herbicidal activity (barnyard grass)
1,"CC1CCCCN1C(=O)SCCCCCl (stereo not drawn) [Compound 1, S-(4-chlorobutyl)-(2-methyl)-piperidine-1-carbothioate]",5 (more than 90%)
2,"CC1CCCCN1C(=O)SCCCCCCl (stereo not drawn) [Compound 2, S-(5-chloropentyl)-(2-methyl)-piperidine-1-carbothioate]",5 (more than 90%)
3,"CC1CCCCN1C(=O)SCCCCCCCl (stereo not drawn) [Compound 3, S-(6-chlorohexyl)-(2-methyl)-piperidine-1-carbothioate]",5 (more than 90%)

# Same assay, conditions: 3 leaf-stage of barnyard grass; 600 g/10a.; 25 days
row,SMILES,herbicidal activity (barnyard grass)
1,"CC1CCCCN1C(=O)SCCCCCl (stereo not drawn) [Compound 1, S-(4-chlorobutyl)-(2-methyl)-piperidine-1-carbothioate]",5 (more than 90%)
2,"CC1CCCCN1C(=O)SCCCCCCl (stereo not drawn) [Compound 2, S-(5-chloropentyl)-(2-methyl)-piperidine-1-carbothioate]",5 (more than 90%)
3,"CC1CCCCN1C(=O)SCCCCCCCl (stereo not drawn) [Compound 3, S-(6-chlorohexyl)-(2-methyl)-piperidine-1-carbothioate]",5 (more than 90%)

# System: barnyard grass
# Assay: Experiment 2: herbicidal effects against barnyard grass (pot test, granules)
# Format: in vivo, Echinochloa crus-galli
# Settings: 150 g/10a., 2.5 leaf-stage, 25 days
row,SMILES,herbicidal activity (barnyard grass)
1,"CC1CCCCN1C(=O)SCCCCCl (stereo not drawn) [Compound 1, S-(4-chlorobutyl)-(2-methyl)-piperidine-1-carbothioate]",5 (more than 90%)
2,"CC1CCCCN1C(=O)SCCCCCCl (stereo not drawn) [Compound 2, S-(5-chloropentyl)-(2-methyl)-piperidine-1-carbothioate]",5 (more than 90%)
3,"CC1CCCCN1C(=O)SCCCCCCCl (stereo not drawn) [Compound 3, S-(6-chlorohexyl)-(2-methyl)-piperidine-1-carbothioate]",5 (more than 90%)

# Same assay, conditions: 300 g/10a., 2.5 leaf-stage, 25 days
row,SMILES,herbicidal activity (barnyard grass)
1,"CC1CCCCN1C(=O)SCCCCCl (stereo not drawn) [Compound 1, S-(4-chlorobutyl)-(2-methyl)-piperidine-1-carbothioate]",5 (more than 90%)
2,"CC1CCCCN1C(=O)SCCCCCCl (stereo not drawn) [Compound 2, S-(5-chloropentyl)-(2-methyl)-piperidine-1-carbothioate]",5 (more than 90%)
3,"CC1CCCCN1C(=O)SCCCCCCCl (stereo not drawn) [Compound 3, S-(6-chlorohexyl)-(2-methyl)-piperidine-1-carbothioate]",5 (more than 90%)

# Same assay, conditions: 600 g/10a., 2.5 leaf-stage, 25 days
row,SMILES,herbicidal activity (barnyard grass)
1,"CC1CCCCN1C(=O)SCCCCCl (stereo not drawn) [Compound 1, S-(4-chlorobutyl)-(2-methyl)-piperidine-1-carbothioate]",5 (more than 90%)
2,"CC1CCCCN1C(=O)SCCCCCCl (stereo not drawn) [Compound 2, S-(5-chloropentyl)-(2-methyl)-piperidine-1-carbothioate]",5 (more than 90%)
3,"CC1CCCCN1C(=O)SCCCCCCCl (stereo not drawn) [Compound 3, S-(6-chlorohexyl)-(2-methyl)-piperidine-1-carbothioate]",5 (more than 90%)

# System: broad-leaf weeds
# Assay: Experiment 2: herbicidal effects against broad-leaf weeds (pot test, granules)
# Format: in vivo
# Settings: 150 g/10a., 25 days
row,SMILES,Herbicidal activity broad-leaf weeds
1,"CC1CCCCN1C(=O)SCCCCCl (stereo not drawn) [Compound 1, S-(4-chlorobutyl)-(2-methyl)-piperidine-1-carbothioate]",5 (more than 90%)
2,"CC1CCCCN1C(=O)SCCCCCCl (stereo not drawn) [Compound 2, S-(5-chloropentyl)-(2-methyl)-piperidine-1-carbothioate]",5 (more than 90%)
3,"CC1CCCCN1C(=O)SCCCCCCCl (stereo not drawn) [Compound 3, S-(6-chlorohexyl)-(2-methyl)-piperidine-1-carbothioate]",4 (70 to 89%)

# Same assay, conditions: 300 g/10a., 25 days
row,SMILES,Herbicidal activity broad-leaf weeds
1,"CC1CCCCN1C(=O)SCCCCCl (stereo not drawn) [Compound 1, S-(4-chlorobutyl)-(2-methyl)-piperidine-1-carbothioate]",5 (more than 90%)
2,"CC1CCCCN1C(=O)SCCCCCCl (stereo not drawn) [Compound 2, S-(5-chloropentyl)-(2-methyl)-piperidine-1-carbothioate]",5 (more than 90%)
3,"CC1CCCCN1C(=O)SCCCCCCCl (stereo not drawn) [Compound 3, S-(6-chlorohexyl)-(2-methyl)-piperidine-1-carbothioate]",5 (more than 90%)

# Same assay, conditions: 600 g/10a., 25 days
row,SMILES,Herbicidal activity broad-leaf weeds
1,"CC1CCCCN1C(=O)SCCCCCl (stereo not drawn) [Compound 1, S-(4-chlorobutyl)-(2-methyl)-piperidine-1-carbothioate]",5 (more than 90%)
2,"CC1CCCCN1C(=O)SCCCCCCl (stereo not drawn) [Compound 2, S-(5-chloropentyl)-(2-methyl)-piperidine-1-carbothioate]",5 (more than 90%)
3,"CC1CCCCN1C(=O)SCCCCCCCl (stereo not drawn) [Compound 3, S-(6-chlorohexyl)-(2-methyl)-piperidine-1-carbothioate]",5 (more than 90%)

# System: Hotarui (Scirpus juncoides)
# Assay: Experiment 2: herbicidal effects against Hotarui (pot test, granules)
# Format: in vivo
# Settings: 150 g/10a., 25 days
row,SMILES,Herbicidal activity Hotarui (Scirpus juncoides)
1,"CC1CCCCN1C(=O)SCCCCCl (stereo not drawn) [Compound 1, S-(4-chlorobutyl)-(2-methyl)-piperidine-1-carbothioate]",4 (70 to 89%)
2,"CC1CCCCN1C(=O)SCCCCCCl (stereo not drawn) [Compound 2, S-(5-chloropentyl)-(2-methyl)-piperidine-1-carbothioate]",3 (50 to 69%)
3,"CC1CCCCN1C(=O)SCCCCCCCl (stereo not drawn) [Compound 3, S-(6-chlorohexyl)-(2-methyl)-piperidine-1-carbothioate]",3 (50 to 69%)

# Same assay, conditions: 300 g/10a., 25 days
row,SMILES,Herbicidal activity Hotarui (Scirpus juncoides)
1,"CC1CCCCN1C(=O)SCCCCCl (stereo not drawn) [Compound 1, S-(4-chlorobutyl)-(2-methyl)-piperidine-1-carbothioate]",5 (more than 90%)
2,"CC1CCCCN1C(=O)SCCCCCCl (stereo not drawn) [Compound 2, S-(5-chloropentyl)-(2-methyl)-piperidine-1-carbothioate]",4 (70 to 89%)
3,"CC1CCCCN1C(=O)SCCCCCCCl (stereo not drawn) [Compound 3, S-(6-chlorohexyl)-(2-methyl)-piperidine-1-carbothioate]",4 (70 to 89%)

# Same assay, conditions: 600 g/10a., 25 days
row,SMILES,Herbicidal activity Hotarui (Scirpus juncoides)
1,"CC1CCCCN1C(=O)SCCCCCl (stereo not drawn) [Compound 1, S-(4-chlorobutyl)-(2-methyl)-piperidine-1-carbothioate]",5 (more than 90%)
2,"CC1CCCCN1C(=O)SCCCCCCl (stereo not drawn) [Compound 2, S-(5-chloropentyl)-(2-methyl)-piperidine-1-carbothioate]",5 (more than 90%)
3,"CC1CCCCN1C(=O)SCCCCCCCl (stereo not drawn) [Compound 3, S-(6-chlorohexyl)-(2-methyl)-piperidine-1-carbothioate]",5 (more than 90%)

# System: Mizugayatsuri (Cyperus serotinus)
# Assay: Experiment 2: herbicidal effects against Mizugayatsuri (pot test, granules)
# Format: in vivo
# Settings: 150 g/10a., 25 days
row,SMILES,Herbicidal activity Mizugayatsuri (Cyperus serotinus)
1,"CC1CCCCN1C(=O)SCCCCCl (stereo not drawn) [Compound 1, S-(4-chlorobutyl)-(2-methyl)-piperidine-1-carbothioate]",4 (70 to 89%)
2,"CC1CCCCN1C(=O)SCCCCCCl (stereo not drawn) [Compound 2, S-(5-chloropentyl)-(2-methyl)-piperidine-1-carbothioate]",3 (50 to 69%)
3,"CC1CCCCN1C(=O)SCCCCCCCl (stereo not drawn) [Compound 3, S-(6-chlorohexyl)-(2-methyl)-piperidine-1-carbothioate]",4 (70 to 89%)

# Same assay, conditions: 300 g/10a., 25 days
row,SMILES,Herbicidal activity Mizugayatsuri (Cyperus serotinus)
1,"CC1CCCCN1C(=O)SCCCCCl (stereo not drawn) [Compound 1, S-(4-chlorobutyl)-(2-methyl)-piperidine-1-carbothioate]",4 (70 to 89%)
2,"CC1CCCCN1C(=O)SCCCCCCl (stereo not drawn) [Compound 2, S-(5-chloropentyl)-(2-methyl)-piperidine-1-carbothioate]",4 (70 to 89%)
3,"CC1CCCCN1C(=O)SCCCCCCCl (stereo not drawn) [Compound 3, S-(6-chlorohexyl)-(2-methyl)-piperidine-1-carbothioate]",4 (70 to 89%)

# Same assay, conditions: 600 g/10a., 25 days
row,SMILES,Herbicidal activity Mizugayatsuri (Cyperus serotinus)
1,"CC1CCCCN1C(=O)SCCCCCl (stereo not drawn) [Compound 1, S-(4-chlorobutyl)-(2-methyl)-piperidine-1-carbothioate]",5 (more than 90%)
2,"CC1CCCCN1C(=O)SCCCCCCl (stereo not drawn) [Compound 2, S-(5-chloropentyl)-(2-methyl)-piperidine-1-carbothioate]",5 (more than 90%)
3,"CC1CCCCN1C(=O)SCCCCCCCl (stereo not drawn) [Compound 3, S-(6-chlorohexyl)-(2-methyl)-piperidine-1-carbothioate]",5 (more than 90%)

# System: not listed separately
# Assay: Experiment 3: acute toxicity to fish
# Format: in vivo, Black-carp fry
# Settings: carp, water; 48 hrs; read-out: Median lethal concentration TLm (48hrs)
# Procedure: With respect to the compounds according to the present invention and the comparative compounds (Compound 10, Compound 12 and Compound 13), there were conducted tests on acute toxicity to carps.
# In 25-liter water tanks made of glass was charged 20 liters of water. 12 Black-carp fry were released to each of the water tanks and bred while feeding for 7 days. Then, the whole quantity of water in each of the tanks was replaced with fresh water, and feeding to the carps was stopped. After three days, a prescribed amount of 1 weight % solution of a test compound in acetone was added to water in the water tank.
# The number of survival fish in each tank was counted after 24 hours, 48 hours and 96 hours, successively.
# The TLm (median tolerance limit=lethal concentration 50%) was determined by the Doudorff's method (Sewage & Ind. Wastes 23 (1951) 1380-1397).
row,SMILES,LC50 at 48 h
1,"CC1CCCCN1C(=O)SCCCCCl (stereo not drawn) [Compound 1, S-(4-chlorobutyl)-(2-methyl)-piperidine-1-carbothioate]",11 µg/mL

# Same assay, conditions: carp, water; 96 hrs; read-out: Median lethal concentration TLm (96hrs)
row,SMILES,LC50 at 96 h
1,"CC1CCCCN1C(=O)SCCCCCl (stereo not drawn) [Compound 1, S-(4-chlorobutyl)-(2-methyl)-piperidine-1-carbothioate]",10 µg/mL

# System: not listed separately
# Assay: Experiment 4: subacute toxicity to fish
# Format: in vivo, 2-year-old carps
# Settings: carp, water; 0.2 ppm; 3 weeks; read-out: Survival rate after 3 weeks
# Procedure: (§1) With respect to the compounds according to the present invention and the comparative compounds listed in Table 4, there were conducted tests on subacute toxicity to 2-year-old carps having an average weight of 20 g.
# (§2) Ten 2-year-old carps were released in each of 25-liter water tanks equipped with an air-blowing apparatus and acclimatized to the surroundings while feeding for 10 days. Water in each of the water tanks was continuously replaced with fresh water so that the residence time of water in the water tanks is 6 hours. Each test compound was added to a predetermined quantity of supply water to prepare a 0.2 ppm aqueous solution of each compound, and each of the aqueous solutions was continuously added to the water in the tank. After three weeks, the hematocrit values of all the survival carps were determined. The hematocrit value used herein is intended to mean a volume percentage of erythrocyte contained in the blood.
row,SMILES,survival at 504 h
1,"CC1CCCCN1C(=O)SCCCCCl (stereo not drawn) [Compound 1, S-(4-chlorobutyl)-(2-methyl)-piperidine-1-carbothioate]",100%
2,"CC1CCCCN1C(=O)SCCCCCCl (stereo not drawn) [Compound 2, S-(5-chloropentyl)-(2-methyl)-piperidine-1-carbothioate]",100%

# System: carps
# Assay: Experiment 4: subacute toxicity to fish
# Format: in vivo, 2-year-old carps
# Settings: 0.2 ppm; 3 weeks
# Procedure: as §1, §2
row,SMILES,Average Hematocrit Value of survival fish
1,"CC1CCCCN1C(=O)SCCCCCl (stereo not drawn) [Compound 1, S-(4-chlorobutyl)-(2-methyl)-piperidine-1-carbothioate]",30%
2,"CC1CCCCN1C(=O)SCCCCCCl (stereo not drawn) [Compound 2, S-(5-chloropentyl)-(2-methyl)-piperidine-1-carbothioate]",30%
